This note sets out measurements from patent US11826344B2, “Composition, method of manufacture, and use of site-specific delivery of bruceolides for treatment of cancer and other diseases” (HOWARD UNIVERSITY, priority 2015, dated 2023).

Holding throughout (assay type): cell-based, human
The test system of experiment [1] is Prostate cancer lines PC3 and LNCaP. Description: Preliminary cytotoxicity study of brusatol solution on prostate cancer cell lines (FIG. 1). The following applies: brusatol 1 nM to 10,000 nM, read from FIG. 1, read-out: IC50 (kills prostate cancer cells). Here is the method: (§1) The human prostate cancer cell lines, PC3 and LNCaP, were obtained from American Type Culture Collection (Manassas, VA). The PC3 and LNCaP cell lines were maintained in RPMI 1640 supplemented with 10% (v/v) FBS and 100 U/mL of penicillin G and 100 µg/mL of streptomycin sulfate. The cells were maintained as a monolayer in an incubator at 37° C. in a humid atmosphere with 5% CO2.

Experiment [2] relates to LNCaP cells. Description: Cell cycle analysis by propidium iodide flow cytometry. As to conditions: 50 nM brusatol, 120 h (day 5). As to the method:
LNCaP cells (seeding density of 40,000 cells per well) were seeded in triplicates in a 24-well plate and incubated for 48 hours. […] The experiment was done in triplicate. At the 120 h time point, cells were harvested and washed twice with cold PBS, fixed in 70% ethanol for 1 h at 4° C. The cells were then washed twice with PBS, and treated with ribonuclease followed by staining with propidium iodide. The stained cells were subjected to cell cycle analysis using the BD Accuri™ C6 flow cytometer (BD Biosciences, Ann Arbor, MI, USA). For each replicate, 20,000 events were recorded.

The subject of another experiment is PC3 cells. Description: Cell Titer 96 Non-Radioactive Cell Proliferation Assay, PC3 cells, 120 h. The following applies: PC3, 10-500 nM. Here is the method: as §1
(§2) PC3 (seeding density of 3,000 cells per well) and LNCaP (seeding density of 6,000 cells per well) were seeded in 96-well plates and allowed to attach for 24 h. […] Cell viability was assessed at 120 h after treatment. The Cell Titer 96® Non-Radioactive Cell Proliferation Assay manufactured by Promega Corporation was employed for this study. Results are presented as percent viability normalized to controls and represent the mean±SD of six replicates per concentration tested. Results were analyzed using One-way Analysis of Variance (ANOVA) and Student's t-test with the aid of SPSS® statistical software. Differences were considered significant at p<0.05.
(§3) The toxicity of the brusatol-loaded nanoparticles in prostate cancer cell lines was evaluated over 120 hours using the Cell Titer 96® Non-Radioactive Cell Proliferation Assay (Promega Corp.). LNCaP cells are androgen receptor dependent while PC-3 cells are androgen independent. […]

For experiment [3], the system named is LNCaP cells. The experiment can be described thus: Cell Titer 96 Non-Radioactive Cell Proliferation Assay, LNCaP cells, 120 h. As to conditions: 10-500 nM. As to the method:
as §1, §2, §3

By IC50 is commonly meant the concentration at which inhibition is half-maximal. With Brusatol, the half-inhibitory concentration (IC50) in experiment [1] lay in the range of 1 to 100 nM. Besides, the cell cycle effect entry was “induces a G1 arrest” in the experiment with LNCaP cells [2] and “G1 arrest” in the experiment on LNCaP cells [2] (listed as brusatol solution). For the same substance, the “toxicity (in words)” value with PC3 cells and in the experiment on LNCaP cells [3] was “dose-dependent toxicity” throughout.
